Experimental data taken from patent US20070292451A1, “Medical herb composition for promoting the growth of hair A mammal and the manufacturing method thereof” (Brion Research Institute of Taiwan, priority 2006, published 2007).

Test system: humans
Test: Oral administration of the medical herb composition to human volunteers with hair shedding
Format: in vivo
Conditions: Example 14: person
Description: The administered dose is based on body weight. For dogs and cats, the dose was 1-1.5 g/5 kg/day. […] because dogs and cats have higher metabolism rate than humans. […] The forehead hairline moved forward after one month, and generally the hair became thick. […] The efficacy of the composition is clearly identified by comparing the photo taken at the 37th day after the first administration of the composition (FIG. 8(b)) to that taken at 5th day (FIG. 8(a)). […] The test was performed on a volunteer, a person ([…]). […] They were diagnosed to suffer from Male Pattern Baldness. […] The efficacy of the composition is clearly identified by comparing the photo taken after the administration of the composition for 1 month (FIG. 9(b)) to that taken before the administration of the composition (FIG. 9(a)). […] In addition, after continuous administration of the composition for 1 month, their eyesight was 150 degree less than that before the administration of the composition.

SMILES: CC(C)(C)NC(=O)[C@H]1CC[C@H]2[C@@H]3CC[C@H]4NC(=O)C=C[C@]4(C)[C@H]3CC[C@]12C [Finasteride]
- effect on Male Pattern Baldness (earlier treatment of the subject): the effect was poor
